Patent US8436185B2, “Pharmaceutically acceptable salts of 2-{4-[(3S)-piperidin-3-yl]phenyl}-2H-indazole-7-carboxamide” (Merck Sharp & Dohme Corp., priority 2008, dated 2013)

What was measured:
PARP = conditions: rabbits, cited from earlier work
[1] = for Hygroscopicity (at 25° C.): in words

| SMILES | reduction in infarct size in the heart (PARP; single injection 10 mg/kg, one minute before occlusion or before reperfusion) | moisture adsorbed to 95% RH ([1]; 25° C.) | Hygroscopicity (at 25° C.) [1] | reduction in infarct size (PARP; single injection 1 mg/kg) | moisture to 50% RH ([1]; 25° C., to 50% RH) |
| --- | --- | --- | --- | --- | --- |
| NC(=O)c1cccc(N)c1 [3-amino-benzamide] | 32-42% |  |  |  |  |
| Cc1ccc(S(=O)(=O)O)cc1.NC(=O)c1cccc2cn(-c3ccc([C@@H]4CCCNC4)cc3)nc12 [Example 1, (3S)-3-{4-[7-(Aminocarbonyl)-2H-indazol-2-yl]phenyl}piperidinium 4-methylbenzenesulfonate] |  | 0.3% | Non-hygroscopic |  |  |
| Oc1cccc2c(O)nccc12 [1,5-dihydroxyisoquinoline] |  |  |  | 38-48% |  |
| Cl.NC(=O)c1cccc2cn(-c3ccc([C@@H]4CCCNC4)cc3)nc12 [Chloride salt, (3S)-3-[4-[7-(Aminocarbonyl)-2H-indazol-2-yl]phenyl]piperidinium chloride] |  | 60% moisture to 95% RH) | Highly hygroscopic |  | 10% |
